# Data taken from patent US10294202B2, “Pyrrolidinones as herbicides” (FMC Corporation, priority 2013, dated 2019).
# Experiments:
# arrowleaf sida = assay: Test E preemergence herbicide test; format: in vivo, Sida rhombifolia; design: key: 0 = no effect, 100 = complete control
# Source text: (§1) Seeds of plant species selected from corn (Zea mays), soybean (Glycine max), velvetleaf (Abutilon theophrasti), lambsquarters (Chenopodium album), wild poinsettia (Euphorbia heterophylla), pigweed, palmer (palmer pigweed, Amaranthus palmeri), waterhemp (common waterhemp, Amaranthus rudis), surinam grass (Brachiaria decumbens), crabgrass, large (large crabgrass, Digitaria sanguinalis), crabgrass, Brazil (Brazilian crabgrass, Digitaria horizontalis), panicum, fall (fall panicum, Panicum dichotomiflorum), foxtail, giant (giant foxtail, Setaria faberii), foxtail, green (green foxtail, Setaria viridis), goosegrass (Eleusine indica), johnsongrass (Sorghum halepense), ragweed (common ragweed, Ambrosia elatior), barnyardgrass (Echinochloa crus-galli), sandbur (southern sandbur, Cenchrus echinatus), arrowleaf […] rhombifolia), ryegrass, Italian (Italian ryegrass, Lolium multiflorum), dayflower, VA (Virginia dayflower, Commelina virginica), field bindweed (Convolvulus arvensis), morningglory (Ipomoea coccinea), nightshade (eastern black nightshade, Solanum ptycanthum), kochia (Kochia scoparia), nutsedge, yellow (yellow nutsedge, Cyperus esculentus), cocklebur (common cocklebur, Xanthium strumarium), smartweed (ladysthumb smartweed, Polygonum Persicaria) and beggarticks (hairy beggarticks, Bidens pilosa), were planted into a silt loam soil and treated preemergence with test chemicals formulated in a non-phytotoxic solvent mixture which included a surfactant. Treated plants and controls were maintained in a greenhouse for 21 days, after which time all species were compared to controls and visually evaluated. Plant response ratings, summarized in Table E, are based on a scale of 0 to 100 where 0 is no effect and 100 is complete control. A dash (-) response means no test result.
# chamomile = assay: Test D pre-/postemergence herbicide test; format: in vivo, Matricaria inodora; settings: for Plant response rating: Chamomile, scale 0 to 100; for Plant response rating, Chamomile: scale 0 to 100 (0 no effect, 100 complete control)
# Method in brief: (§2)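 Visual injury score, 0 (no effect) to 100 (complete control), taken 7–21 d post-treatment against untreated controls. Application was preemergence in silt loam and postemergence at 1- to 4-leaf stage, using a surfactant-containing non-phytotoxic solvent formulation.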
# galium = assay: Test D pre-/postemergence herbicide test; format: in vivo, Galium aparine; settings: for Plant response rating: Galium, scale 0 to 100; for Plant response rating, Galium: scale 0 to 100 (0 no effect, 100 complete control)
# Method in brief: as §2
# waterhemp = assay: Test E preemergence herbicide test; format: in vivo, Amaranthus rudis; design: key: 0 = no effect, 100 = complete control
# Source text: as §1
# wheat, spring = assay: Test D pre-/postemergence herbicide test; format: in vivo, Triticum aestivum; settings: for Plant response rating: Postemergence, Wheat, Spring, scale 0 to 100; for Plant response rating, Wheat, Spring: Preemergence, scale 0 to 100 (0 no effect, 100 complete control)
# Method in brief: as §2
# wheat, winter = assay: Test D pre-/postemergence herbicide test; format: in vivo, Triticum aestivum; settings: for Plant response rating: Postemergence, Wheat, Winter, scale 0 to 100; for Plant response rating, Wheat, Winter: Preemergence, scale 0 to 100 (0 no effect, 100 complete control)
# Method in brief: as §2
# bromegrass, downy = assay: Test D pre-/postemergence herbicide test; format: in vivo, Bromus tectorum; settings: for Plant response rating: Bromegrass, Downy, scale 0 to 100; for Plant response rating, Bromegrass, Downy: scale 0 to 100 (0 no effect, 100 complete control)
# Method in brief: as §2
compound,measurement,setting,value
O=C1NCC(c2ccc(C(F)(F)F)cc2)C1C(=O)Nc1cccc(F)c1F (racemic) [Compound 202],"Plant response rating, Arrowleaf Sida",arrowleaf sida; 31 g ai/ha,0
same,"Plant response rating, Arrowleaf Sida",arrowleaf sida; 62 g ai/ha,30
same,"Plant response rating, Arrowleaf Sida",arrowleaf sida; 125 g ai/ha,70
same,"Plant response rating, Arrowleaf Sida",arrowleaf sida; 250 g ai/ha,80
same,Plant response rating,"chamomile; Postemergence, 31 g ai/ha",5
same,Plant response rating,"chamomile; Postemergence, 62 g ai/ha",60
same,Plant response rating,"chamomile; Postemergence, 125 g ai/ha",65
same,Plant response rating,"chamomile; Postemergence, 250 g ai/ha",60
same,"Plant response rating, Chamomile","chamomile; Preemergence, 62 g ai/ha",65
same,"Plant response rating, Chamomile","chamomile; Preemergence, 31 g ai/ha",60
same,Plant response rating,"chamomile; Preemergence, 125 g ai/ha",75
same,Plant response rating,"chamomile; Preemergence, 250 g ai/ha",100
same,Plant response rating,"galium; Postemergence, 31 g ai/ha",60
same,Plant response rating,"galium; Postemergence, 62 g ai/ha",70
same,Plant response rating,"galium; Postemergence, 125 g ai/ha",70
same,Plant response rating,"galium; Postemergence, 250 g ai/ha",70
same,"Plant response rating, Galium","galium; Preemergence, 62 g ai/ha",70
same,"Plant response rating, Galium","galium; Preemergence, 31 g ai/ha",75
same,Plant response rating,"galium; Preemergence, 125 g ai/ha",80
same,Plant response rating,"galium; Preemergence, 250 g ai/ha",85
same,"Plant response rating, Waterhemp",waterhemp; 31 g ai/ha,50
same,"Plant response rating, Waterhemp",waterhemp; 62 g ai/ha,60
same,"Plant response rating, Waterhemp",waterhemp; 125 g ai/ha,95
same,"Plant response rating, Waterhemp",waterhemp; 250 g ai/ha,95
same,Plant response rating,"wheat, spring; 31 g ai/ha",0
same,Plant response rating,"wheat, spring; 62 g ai/ha",0
same,Plant response rating,"wheat, spring; 125 g ai/ha",0
same,Plant response rating,"wheat, spring; 250 g ai/ha",5
same,"Plant response rating, Wheat, Spring","wheat, spring; 62 g ai/ha",5
same,"Plant response rating, Wheat, Spring","wheat, spring; 125 g ai/ha",25
same,"Plant response rating, Wheat, Spring","wheat, spring; 31 g ai/ha",0
same,"Plant response rating, Wheat, Spring","wheat, spring; 250 g ai/ha",35
same,Plant response rating,"wheat, winter; 31 g ai/ha",0
same,Plant response rating,"wheat, winter; 62 g ai/ha",0
same,Plant response rating,"wheat, winter; 125 g ai/ha",0
same,Plant response rating,"wheat, winter; 250 g ai/ha",0
same,"Plant response rating, Wheat, Winter","wheat, winter; 62 g ai/ha",10
same,"Plant response rating, Wheat, Winter","wheat, winter; 125 g ai/ha",25
same,"Plant response rating, Wheat, Winter","wheat, winter; 31 g ai/ha",5
same,"Plant response rating, Wheat, Winter","wheat, winter; 250 g ai/ha",25
same,Plant response rating,"bromegrass, downy; Postemergence, 31 g ai/ha",0
same,Plant response rating,"bromegrass, downy; Postemergence, 62 g ai/ha",0
same,Plant response rating,"bromegrass, downy; Postemergence, 125 g ai/ha",5
same,Plant response rating,"bromegrass, downy; Postemergence, 250 g ai/ha",15
same,"Plant response rating, Bromegrass, Downy","bromegrass, downy; Preemergence, 62 g ai/ha",0
same,"Plant response rating, Bromegrass, Downy","bromegrass, downy; Preemergence, 31 g ai/ha",0
same,Plant response rating,"bromegrass, downy; Preemergence, 125 g ai/ha",0
same,Plant response rating,"bromegrass, downy; Preemergence, 250 g ai/ha",20
"O=C1NCC(c2ccc(F)c(F)c2)C1C(=O)Nc1cccc(F)c1F (stereo not shown) [Compound 17, N-(2,3-difluorophenyl)-4-(3,4-difluorophenyl)-2-oxo-3-pyrrolidinecarboxamide]","Plant response rating, Arrowleaf Sida",arrowleaf sida; 16 g ai/ha,0
same,"Plant response rating, Arrowleaf Sida",arrowleaf sida; 31 g ai/ha,0
same,"Plant response rating, Arrowleaf Sida",arrowleaf sida; 62 g ai/ha,0
same,"Plant response rating, Arrowleaf Sida",arrowleaf sida; 125 g ai/ha,0
same,"Plant response rating, Arrowleaf Sida",arrowleaf sida; 250 g ai/ha,0
same,Plant response rating,"chamomile; Postemergence, 16 g ai/ha",0
same,Plant response rating,"chamomile; Postemergence, 31 g ai/ha",0
same,Plant response rating,"chamomile; Postemergence, 62 g ai/ha",0
same,Plant response rating,"chamomile; Postemergence, 125 g ai/ha",0
same,Plant response rating,"chamomile; Postemergence, 250 g ai/ha",0
same,Plant response rating,"galium; Postemergence, 16 g ai/ha",0
same,Plant response rating,"galium; Postemergence, 31 g ai/ha",0
same,Plant response rating,"galium; Postemergence, 62 g ai/ha",0
same,Plant response rating,"galium; Postemergence, 125 g ai/ha",10
same,Plant response rating,"galium; Postemergence, 250 g ai/ha",30
same,"Plant response rating, Waterhemp",waterhemp; 16 g ai/ha,0
same,"Plant response rating, Waterhemp",waterhemp; 31 g ai/ha,0
same,"Plant response rating, Waterhemp",waterhemp; 62 g ai/ha,0
same,"Plant response rating, Waterhemp",waterhemp; 125 g ai/ha,0
same,"Plant response rating, Waterhemp",waterhemp; 250 g ai/ha,0
same,Plant response rating,"wheat, spring; 16 g ai/ha",0
same,Plant response rating,"wheat, spring; 31 g ai/ha",0
same,Plant response rating,"wheat, spring; 62 g ai/ha",0
same,Plant response rating,"wheat, spring; 125 g ai/ha",0
same,Plant response rating,"wheat, spring; 250 g ai/ha",0
same,Plant response rating,"wheat, winter; 16 g ai/ha",0
same,Plant response rating,"wheat, winter; 31 g ai/ha",0
same,Plant response rating,"wheat, winter; 62 g ai/ha",0
same,Plant response rating,"wheat, winter; 125 g ai/ha",0
same,Plant response rating,"wheat, winter; 250 g ai/ha",0
same,Plant response rating,"bromegrass, downy; Postemergence, 16 g ai/ha",0
same,Plant response rating,"bromegrass, downy; Postemergence, 31 g ai/ha",0
same,Plant response rating,"bromegrass, downy; Postemergence, 62 g ai/ha",0
same,Plant response rating,"bromegrass, downy; Postemergence, 125 g ai/ha",0
same,Plant response rating,"bromegrass, downy; Postemergence, 250 g ai/ha",0
"O=C1NCC(c2ccc(C(F)(F)F)cc2)C1C(=O)Nc1cccc(F)c1F (stereo not shown) [Compound 80, N-(2,3-difluorophenyl)-2-oxo-4-[4-(trifluoromethyl)phenyl]-3-pyrrolidinecarboxamide]","Plant response rating, Arrowleaf Sida",arrowleaf sida; 16 g ai/ha,0
same,"Plant response rating, Arrowleaf Sida",arrowleaf sida; 31 g ai/ha,0
same,"Plant response rating, Arrowleaf Sida",arrowleaf sida; 62 g ai/ha,0
same,"Plant response rating, Arrowleaf Sida",arrowleaf sida; 125 g ai/ha,0
same,"Plant response rating, Arrowleaf Sida",arrowleaf sida; 250 g ai/ha,10
same,Plant response rating,"chamomile; Postemergence, 31 g ai/ha",20
same,Plant response rating,"chamomile; Postemergence, 62 g ai/ha",30
same,Plant response rating,"chamomile; Postemergence, 125 g ai/ha",35
same,Plant response rating,"chamomile; Postemergence, 250 g ai/ha",50
same,"Plant response rating, Chamomile","chamomile; Preemergence, 62 g ai/ha",80
same,"Plant response rating, Chamomile","chamomile; Preemergence, 31 g ai/ha",80
same,Plant response rating,"chamomile; Preemergence, 125 g ai/ha",80
same,Plant response rating,"chamomile; Preemergence, 250 g ai/ha",85
same,Plant response rating,"galium; Postemergence, 31 g ai/ha",20
same,Plant response rating,"galium; Postemergence, 62 g ai/ha",45
same,Plant response rating,"galium; Postemergence, 125 g ai/ha",55
same,Plant response rating,"galium; Postemergence, 250 g ai/ha",60
same,"Plant response rating, Galium","galium; Preemergence, 62 g ai/ha",45
same,"Plant response rating, Galium","galium; Preemergence, 31 g ai/ha",0
same,Plant response rating,"galium; Preemergence, 125 g ai/ha",65
same,Plant response rating,"galium; Preemergence, 250 g ai/ha",75
same,"Plant response rating, Waterhemp",waterhemp; 16 g ai/ha,0
same,"Plant response rating, Waterhemp",waterhemp; 31 g ai/ha,20
same,"Plant response rating, Waterhemp",waterhemp; 62 g ai/ha,30
same,"Plant response rating, Waterhemp",waterhemp; 125 g ai/ha,50
same,"Plant response rating, Waterhemp",waterhemp; 250 g ai/ha,60
same,Plant response rating,"wheat, spring; 31 g ai/ha",0
same,Plant response rating,"wheat, spring; 62 g ai/ha",0
same,Plant response rating,"wheat, spring; 125 g ai/ha",0
same,Plant response rating,"wheat, spring; 250 g ai/ha",0
same,"Plant response rating, Wheat, Spring","wheat, spring; 62 g ai/ha",10
same,"Plant response rating, Wheat, Spring","wheat, spring; 125 g ai/ha",10
same,"Plant response rating, Wheat, Spring","wheat, spring; 31 g ai/ha",0
same,"Plant response rating, Wheat, Spring","wheat, spring; 250 g ai/ha",20
same,Plant response rating,"wheat, winter; 31 g ai/ha",0
same,Plant response rating,"wheat, winter; 62 g ai/ha",0
same,Plant response rating,"wheat, winter; 125 g ai/ha",10
same,Plant response rating,"wheat, winter; 250 g ai/ha",5
same,"Plant response rating, Wheat, Winter","wheat, winter; 62 g ai/ha",5
same,"Plant response rating, Wheat, Winter","wheat, winter; 125 g ai/ha",10
same,"Plant response rating, Wheat, Winter","wheat, winter; 31 g ai/ha",5
same,"Plant response rating, Wheat, Winter","wheat, winter; 250 g ai/ha",10
same,Plant response rating,"bromegrass, downy; Postemergence, 31 g ai/ha",15
same,Plant response rating,"bromegrass, downy; Postemergence, 62 g ai/ha",15
same,Plant response rating,"bromegrass, downy; Postemergence, 125 g ai/ha",20
same,Plant response rating,"bromegrass, downy; Postemergence, 250 g ai/ha",20
same,"Plant response rating, Bromegrass, Downy","bromegrass, downy; Preemergence, 62 g ai/ha",5
same,"Plant response rating, Bromegrass, Downy","bromegrass, downy; Preemergence, 31 g ai/ha",0
same,Plant response rating,"bromegrass, downy; Preemergence, 125 g ai/ha",5
same,Plant response rating,"bromegrass, downy; Preemergence, 250 g ai/ha",10
